Source: PMC5717064, “Alternative substrate-bound conformation of bacterial solute-binding protein involved in the import of mammalian host glycosaminoglycans” (Scientific Reports, 2017)

Legend:
[1] = molecular target: T1, Smon0121-Smon0122/Smon0120-Smon0120 (Streptobacillus moniliformis, UniProt D1AWD7); settings: in presence of Smon0123 and disaccharide ligands
T1 construct: gene Smon_0120

[2] = molecular target: T2, Smon0123 (N-18/C-5) (Streptobacillus moniliformis, UniProt D1AWE0); test: X-ray crystallography, […] Å; format: binding; settings: pH 7.5, 20 °C, calcium bound; cleft between N and C domains
T2 construct: gene Smon_0123; N-terminal 18 and C-terminal 5 residues truncated (starts Met1-Lys19), expressed in E. coli, purified by DEAE and Superdex 200

[3] = molecular target: T3, Smon0123 (full-length) (Streptobacillus moniliformis, UniProt D1AWE0); test: intrinsic tryptophan fluorescence titration; format: binding; settings: 0.1 μM protein, 0-20 μM ligand, excitation 280 nm
T3 construct: gene Smon_0123; full-length protein, expressed in E. coli, purified by TALON, Resource Q and Superdex 200; tag not described; about 57 kDa, monomer

[4] = molecular target: T2, Smon0123 (N-18/C-5); test: X-ray crystallography, […] Å; format: binding; settings: pH 7.5; crystallised with CΔ4S6S, CΔ4S found in the cleft (contaminant or desulfation); construct printed only as Smon0123; not deposited

T2 sequence (D1AWE0 entry or part of it): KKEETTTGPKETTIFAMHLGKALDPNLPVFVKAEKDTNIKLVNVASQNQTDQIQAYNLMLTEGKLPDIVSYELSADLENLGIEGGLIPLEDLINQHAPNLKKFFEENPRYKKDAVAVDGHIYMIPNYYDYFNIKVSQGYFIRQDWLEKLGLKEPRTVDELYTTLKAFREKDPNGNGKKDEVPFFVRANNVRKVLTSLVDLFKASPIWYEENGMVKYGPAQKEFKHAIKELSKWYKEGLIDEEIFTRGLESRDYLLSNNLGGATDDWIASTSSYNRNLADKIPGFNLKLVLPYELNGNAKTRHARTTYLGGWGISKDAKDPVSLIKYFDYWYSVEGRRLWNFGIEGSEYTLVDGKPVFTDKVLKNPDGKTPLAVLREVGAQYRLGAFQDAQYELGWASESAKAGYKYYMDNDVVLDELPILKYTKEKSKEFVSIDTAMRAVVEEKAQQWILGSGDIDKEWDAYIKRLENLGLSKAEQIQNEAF
T1 sequence (D1AWD7 entry or part of it): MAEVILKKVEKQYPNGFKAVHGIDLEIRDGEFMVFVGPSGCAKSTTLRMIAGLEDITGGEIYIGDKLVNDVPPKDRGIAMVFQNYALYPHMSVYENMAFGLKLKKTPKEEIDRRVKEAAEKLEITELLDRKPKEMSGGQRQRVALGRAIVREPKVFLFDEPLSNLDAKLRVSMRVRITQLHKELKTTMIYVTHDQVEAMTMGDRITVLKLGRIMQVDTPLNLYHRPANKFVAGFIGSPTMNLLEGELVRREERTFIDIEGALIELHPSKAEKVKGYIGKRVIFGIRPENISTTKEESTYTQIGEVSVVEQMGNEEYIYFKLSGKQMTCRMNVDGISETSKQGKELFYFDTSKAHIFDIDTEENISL
T1 sequence (D1AWD8 entry or part of it, further chain): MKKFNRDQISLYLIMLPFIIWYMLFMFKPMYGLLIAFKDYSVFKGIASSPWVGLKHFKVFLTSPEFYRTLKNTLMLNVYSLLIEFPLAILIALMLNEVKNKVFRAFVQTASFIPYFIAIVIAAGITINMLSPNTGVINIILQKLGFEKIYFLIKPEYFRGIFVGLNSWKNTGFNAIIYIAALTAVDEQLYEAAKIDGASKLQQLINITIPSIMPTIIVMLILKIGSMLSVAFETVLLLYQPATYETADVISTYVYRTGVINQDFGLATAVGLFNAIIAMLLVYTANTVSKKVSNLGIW
T1 sequence (D1AWE0 entry or part of it, further chain): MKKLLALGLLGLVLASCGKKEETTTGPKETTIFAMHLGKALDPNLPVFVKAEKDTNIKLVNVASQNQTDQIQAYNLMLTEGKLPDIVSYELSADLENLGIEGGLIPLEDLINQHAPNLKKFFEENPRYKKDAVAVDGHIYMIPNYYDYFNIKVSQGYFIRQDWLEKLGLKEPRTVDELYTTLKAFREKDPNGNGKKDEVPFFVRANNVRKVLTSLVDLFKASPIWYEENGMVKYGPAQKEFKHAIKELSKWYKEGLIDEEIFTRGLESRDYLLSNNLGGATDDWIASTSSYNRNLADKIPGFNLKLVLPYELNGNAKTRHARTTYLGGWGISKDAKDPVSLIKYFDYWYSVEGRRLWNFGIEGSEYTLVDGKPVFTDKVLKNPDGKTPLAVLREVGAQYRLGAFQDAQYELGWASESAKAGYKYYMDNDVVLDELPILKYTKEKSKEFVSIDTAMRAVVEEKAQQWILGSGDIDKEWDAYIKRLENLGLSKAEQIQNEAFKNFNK
T1 sequence (D1AWD9 entry or part of it, further chain): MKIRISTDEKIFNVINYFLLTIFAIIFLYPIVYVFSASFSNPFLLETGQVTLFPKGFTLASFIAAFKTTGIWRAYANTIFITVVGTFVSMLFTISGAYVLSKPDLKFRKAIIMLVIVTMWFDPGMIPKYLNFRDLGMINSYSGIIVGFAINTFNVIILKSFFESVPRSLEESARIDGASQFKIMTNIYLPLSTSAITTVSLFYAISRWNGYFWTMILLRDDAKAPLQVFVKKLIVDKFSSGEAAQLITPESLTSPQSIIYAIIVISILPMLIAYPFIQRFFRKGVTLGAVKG
T3 sequence (D1AWE0 entry or part of it): as the sequence (D1AWE0 entry or part of it, further chain) above

For Nc1ncnc2c1ncn2[C@@H]1O[C@H](COP(=O)(O)OP(=O)(O)OP(=O)(O)O)[C@@H](O)[C@H]1O [ATP], the “molybdenum blue phosphate release, proteoliposomes” value [1] was “phosphate ion concentration generated through ATP hydrolysis in the presence of Smon0123 and ligands”.

For CC(=O)N[C@H]1C(O)O[C@H](COS(=O)(=O)O)[C@H](OS(=O)(=O)O)[C@@H]1O[C@@H]1OC(C(=O)O)=C[C@H](O)[C@H]1O (stereo partly shown) [CΔ4S6S], the “X-ray crystallography, 1.95 Å” value [2] was “The coordinates and structure factors of Smon0123/CΔ4S6S have been deposited in the Protein Data Bank” and the Kd [3] was 3.86 ± 0.243 µM.

In the case of CC(=O)N[C@H]1C(O)O[C@H](CO)[C@H](OS(=O)(=O)O)[C@@H]1O[C@@H]1OC(C(=O)O)=C[C@H](O)[C@H]1O (stereo partly shown) [CΔ4S], the “X-ray crystallography, 2.50 Å” value [4] is reported as “the protein was found to interact with C∆4S but not C∆4S6S in the cleft”.
